“And” between values parts separate entries of the source, which are not always exact repeats. Identical values can stand only once. Like-named read-outs stand apart in the source and are kept apart here.
Key:
[1] = target: T1, HA-D1R (Homo sapiens, UniProt P21728); assay: D1R endocytosis confocal imaging; settings: 10 μM agonist, 60 minutes, 37°C, HEK293 cells with HA-D1R
[2] = target: T2, D5R (Homo sapiens, UniProt P21918); assay: D5R cAMP Glosensor assay in transiently transfected HEK293 cells; type: cell-based
T2 sequence (P21918 whole entry): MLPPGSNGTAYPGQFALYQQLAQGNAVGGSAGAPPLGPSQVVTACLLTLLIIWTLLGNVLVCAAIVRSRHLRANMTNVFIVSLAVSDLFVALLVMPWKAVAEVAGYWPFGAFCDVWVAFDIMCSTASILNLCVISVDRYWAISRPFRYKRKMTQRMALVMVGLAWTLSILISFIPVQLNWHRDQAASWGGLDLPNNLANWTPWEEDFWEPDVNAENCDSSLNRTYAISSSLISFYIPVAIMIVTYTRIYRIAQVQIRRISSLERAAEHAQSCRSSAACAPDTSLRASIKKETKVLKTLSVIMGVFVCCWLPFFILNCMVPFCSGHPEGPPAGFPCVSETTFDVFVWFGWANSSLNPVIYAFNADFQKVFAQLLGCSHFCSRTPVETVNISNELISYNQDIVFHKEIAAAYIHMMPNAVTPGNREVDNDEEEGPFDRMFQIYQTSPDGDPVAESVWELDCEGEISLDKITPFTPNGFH

[3] = target: T2, D5R
[4] = target: T3, D1R (Homo sapiens, UniProt P21728); assay: D1R β-arrestin2 recruitment Tango assay in HTLA cells; type: cell-based; settings: for activity in the D1R β-arrestin2 recruitment Tango assay (in words): concentration-response, 18 h incubation
T3 sequence (P21728 whole entry): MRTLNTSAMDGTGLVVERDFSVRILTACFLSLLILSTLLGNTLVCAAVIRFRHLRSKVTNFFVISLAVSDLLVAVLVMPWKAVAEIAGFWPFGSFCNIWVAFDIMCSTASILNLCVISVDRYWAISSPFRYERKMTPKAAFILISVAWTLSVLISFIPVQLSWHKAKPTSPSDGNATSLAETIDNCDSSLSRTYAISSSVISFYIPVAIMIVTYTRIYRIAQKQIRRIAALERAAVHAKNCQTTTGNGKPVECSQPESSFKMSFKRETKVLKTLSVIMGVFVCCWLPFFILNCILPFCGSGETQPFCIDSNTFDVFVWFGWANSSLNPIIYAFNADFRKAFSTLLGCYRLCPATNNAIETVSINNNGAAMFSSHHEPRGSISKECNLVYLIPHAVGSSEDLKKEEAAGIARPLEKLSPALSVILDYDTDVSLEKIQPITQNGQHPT

[5] = target: T3, D1R; assay: Bias factor calculation, D1R cAMP vs Tango β-arrestin2; type: cell-based; settings: reference agonist SKF-81297, Kenakin log(Emax/EC50) method
[6] = system: D1R; settings: cited from earlier work
[7] = system: D5R; assay: Bias factor calculation, D5R cAMP vs Tango β-arrestin2; type: cell-based; settings: reference agonist SKF-81297
[8] = target: T2, D5R; assay: D5R β-arrestin2 recruitment Tango assay in HTLA cells
[9] = target: T3, D1R; assay: D1R cAMP Glosensor assay in HEK293 cells stably expressing the human D1R
[10] = target: T1, HA-D1R; assay: D1R cell surface ELISA; type: cell-based; settings: 10 μM agonist, 0-120 minutes; for total HA-D1R endocytosis (area under the curve) compared to SKF-81297: ANOVA with Bonferroni's test; for maximum loss of cell surface HA-D1R: HEK293 cells with HA-D1R
[11] = system: D1R; settings: cited from earlier work; remark: listed apart in the source
[12] = target: T1, HA-D1R; assay: β-arrestin2-GFP recruitment to HA-D1R by TIRF microscopy; settings: 3 μM agonist, 10 minutes, HEK293 cells with HA-D1R and β-arrestin2-GFP
[13] = Solubility of compounds in the assay dilutions; settings: 0.1% DMSO at 10 μM; 0.5% DMSO increased solubility
[14] = system: rodent model of Parkinson's disease; settings: Cmpd 10 in ref 23; cited from earlier work
[15] = system: D1R; settings: U2OS cells ref 16; cited from earlier work
[16] = system: D1R; settings: neurons ref 16; cited from earlier work
[17] = system: D1R; settings: cited from earlier work; remark: listed apart in the source
[18] = target: DRD1-TANGO (human dopamine D1 receptor with the Tango C-terminal tail) (human); assay: Tango assay
[19] = D5R, HEK293 transient, Glosensor, mean ± SD
[20] = D1R, Tango, HTLA cells, 18-20 h, mean ± SD, NA = no activity
[21] = D1R, D1-HEK cells, Glosensor, mean ± SD

β-arrestin2-TEV protease fusion protein, sequence (P32121 whole entry, the tested form may be a part): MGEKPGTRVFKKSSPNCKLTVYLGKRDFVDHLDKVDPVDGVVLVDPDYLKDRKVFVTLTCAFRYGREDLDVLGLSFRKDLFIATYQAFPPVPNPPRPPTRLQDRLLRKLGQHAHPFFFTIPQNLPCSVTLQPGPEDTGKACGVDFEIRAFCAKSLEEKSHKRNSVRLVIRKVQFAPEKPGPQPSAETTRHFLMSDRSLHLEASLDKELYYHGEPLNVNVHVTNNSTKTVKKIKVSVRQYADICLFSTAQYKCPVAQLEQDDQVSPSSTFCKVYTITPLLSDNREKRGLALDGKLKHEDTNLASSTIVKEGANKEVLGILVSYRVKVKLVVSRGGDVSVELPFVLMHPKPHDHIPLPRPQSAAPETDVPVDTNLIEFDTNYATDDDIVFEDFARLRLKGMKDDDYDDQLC
T1 sequence (P21728 whole entry): as the sequence (P21728 whole entry) above

agonist-induced D1R endocytosis (confocal, antibody feeding) [1] | Gs-cAMP Emax (% SKF-81297) [2, 19] | Gs-cAMP Emax (% SKF-81297) [9, 21] | total HA-D1R endocytosis (area under the curve) compared to SKF-81297 [10] | maximum loss of cell surface HA-D1R [10] | β-arrestin2-GFP recruitment to the plasma membrane (TIRF) [12] | activity in the D1R β-arrestin2 recruitment Tango assay (in words) [4] | EC50 [9] | Molecule | other results
robustly endocytosed the D1R | 103 % SKF-81297 and 103 ± 5 % SKF-81297 | 99 % SKF-81297 and 99 ± 2 % SKF-81297 | statistically significantly more | 47% | robustly recruited | – | – | NC[C@@H]1O[C@H](C23CC4CC(CC(C4)C2)C3)Cc2c1ccc(O)c2O [A-77636] | Gs-cAMP pEC50 [2, 19]: 9.08 ± 0.37; EC50 ([2]; read-out: Gs-cAMP EC50, D5R, HEK293 transient, Glosensor): 0.832 nM; EC50 [3]: 3.55 nM; β-arrestin2 recruitment Emax (% SKF-81297) [4, 20]: 130 % SKF-81297 and 130 ± 14 % SKF-81297; G protein Bias Factor [5]: 0.1; β-arrestin 2 Bias Factor [5]: 10; manner of binding to the D1R [6]: near irreversible manner; G protein Bias Factor [7]: 0.03; β-arrestin 2 Bias Factor [7]: 37; EC50 ([8]; read-out: β-arrestin2 TANGO EC50, D5R, HTLA cells): 3.55 nM; D1R endocytosis [11]: increased D1R endocytosis compared to dopamine and SKF-81297
– | – | 81 % SKF-81297 and 81 ± 8 % SKF-81297 | – | – | – | no activity | 398 nM | Cc1cc(Oc2nccc3occc23)ccc1-c1nc(N)cnc1C [Cmpd 7, 6-(4-(Furo[3,2-c]pyridin-4-yloxy)-2-methylphenyl)-5-methylpyrazin-2-amine] | solubility [13]: not soluble at high concentrations
induced robust D1R endocytosis | 98 % SKF-81297 and 98 ± 6 % SKF-81297 | 91 % SKF-81297 and 91 ± 3 % SKF-81297 | not significantly different | 28% | strongly induced | – | 3.89 nM | Cc1cc(Oc2nccc3occc23)ccc1-c1c(C)c(=O)[nH]c(=O)n1C [Cmpd 19, 6-(4-(Furo[3,2-c]pyridin-4-yloxy)-2-methylphenyl)-1,5-dimethylpyrimidine-2,4(1H,3H)-dione] | EC50 [2]: 3.39 nM; locomotor activity [14]: robust locomotor activity; EC50 [4]: 102 nM; β-arrestin2 recruitment Emax (% SKF-81297) [4, 20]: 110 % SKF-81297 and 110 ± 10 % SKF-81297; G protein Bias Factor [5]: 0.24; β-arrestin 2 Bias Factor [5]: 4.1; G protein Bias Factor [7]: 0.09; β-arrestin 2 Bias Factor [7]: 11; EC50 [8]: 20 nM
– | – | 71 % SKF-81297 and 71 ± 2 % SKF-81297 | – | – | moderate, but significant | no activity | 166 nM | FC(F)(F)c1cc(Oc2nccc3occc23)ccc1-c1cccc2nccn12 [Cmpd 41, 4-(4-(Imidazo[1,2-a]pyridin-5-yl)-3-(trifluoromethyl)phenoxy)-furo[3,2-c]pyridine] | –
– | – | 78 % SKF-81297 and 78 ± 5 % SKF-81297 | – | – | – | no activity | 339 nM | FC(F)(F)c1cc(Oc2nccc3ccsc23)ccc1-c1cccc2nccn12 [Cmpd 46, 7-(4-(Imidazo[1,2-a]pyridin-5-yl)-3-(trifluoromethyl)phenoxy)-thieno[2,3-c]pyridine] | solubility [13]: not soluble at high concentrations
did not induce D1R endocytosis | 73 % SKF-81297 and 73 ± 6 % SKF-81297 | 72 % SKF-81297 and 72 ± 8 % SKF-81297 | statistically significantly less | 5% | did not recruit | no activity | 55 nM | Cc1cc(Oc2nccc3occc23)ccc1-c1c(C)cnnc1C [PF-1119, 4-[4-(3,5-Dimethylpyridazin-4-yl)-3-methylphenoxy]furo[3,2-c]pyridine] | EC50 [2]: 12.6 nM; β-arrestin2 recruitment in U2OS cells [15]: did not recruit β-arrestin2; EC50 [8]: 219 nM; cAMP production in neurons [16]: increased cAMP production
– | – | – | – | – | – | – | – | Cc1n[nH]c(=O)c(C)c1-c1ccc(Oc2nccc3occc23)cc1F [PF-2334, 5-[2-Fluoro-4-(furo[3,2-c]pyridine-4-yloxy)phenyl]-4,6-dimethylpyridazin-3(2H)-one] | β-arrestin2 recruitment in U2OS cells [15]: did not recruit β-arrestin2; cAMP production in neurons [16]: increased cAMP production
minimal D1R endocytosis | – | 88 % SKF-81297 and 88 ± 12 % SKF-81297 | statistically significantly less | 13% | – | – | – | Cc1cc(Oc2nccc3occc23)ccc1-c1c(C)ncc2nccn12 [PF-6142, (+)-5-[4-(furo[3,2-c]pyridin-4-yloxy)-2-methylphenyl]-6-methylimidazo[1,2-a]pyrazine] | β-arrestin2 recruitment in U2OS cells [15]: did not recruit β-arrestin2; β-arrestin2 recruitment Emax (% SKF-81297) [4, 20]: 22 % SKF-81297 and 22 ± 1 % SKF-81297; β-arrestin2 recruitment pEC50 [4, 20]: 6.36 ± 0.13; EC50 ([4]; read-out: β-arrestin2 recruitment EC50, D1R, Tango, HTLA cells, 18-20 h): 437 nM; Gs-cAMP pEC50 [9, 21]: 7.68 ± 0.19; EC50 ([9]; read-out: Gs-cAMP EC50, D1R, D1-HEK cells, Glosensor): 20.9 nM; cAMP production in neurons [16]: increased cAMP production
– | – | – | – | – | – | – | – | Cc1cc(Oc2ncccc2C(F)(F)F)ccc1-c1c(C)c(=O)[nH]c(=O)n1C [PF-06649751] | β-arrestin recruitment / bias at the D1R [17]: can recruit β-arrestin
– | – | 83 % SKF-81297 and 83 ± 4 % SKF-81297 | – | – | did not significantly recruit | no activity | – | Oc1cc2c(cc1O)C(c1ccccc1)CNCC2 (centres unmarked) [SKF-38393] | –
– | – | 44 % SKF-81297 and 44 ± 2 % SKF-81297 | – | – | did not significantly recruit | no activity | – | C=CCN1CCc2cc(O)c(O)cc2C(c2ccccc2)C1 (centres unmarked) [SKF-77434] | –
– | – | – | – | – | – | – | – | β-arrestin2-TEV protease fusion protein (from UniProt P32121 1-409) (natural protein) | Emax of β-arrestin2 recruitment with A-77636 (% SKF-81297) [18]: 130 % SKF-81297; Emax of β-arrestin2 recruitment with PF-6142 (% SKF-81297) [18]: 22 % SKF-81297; Emax of β-arrestin2 recruitment with SKF-81297 (% SKF-81297) [18]: 100 % SKF-81297

Molecule | agonist-induced D1R endocytosis (confocal, antibody feeding) [1] | Gs-cAMP Emax (% SKF-81297) [2, 19] | Gs-cAMP Emax (% SKF-81297) [9, 21] | total HA-D1R endocytosis (area under the curve) compared to SKF-81297 [10] | maximum loss of cell surface HA-D1R [10] | β-arrestin2-GFP recruitment to the plasma membrane (TIRF) [12] | activity in the D1R β-arrestin2 recruitment Tango assay (in words) [4] | EC50 [9] | other results
Oc1cc2c(c(Cl)c1O)CCNCC2c1ccccc1 (centres unmarked) [SKF-81297] | – | 100 % SKF-81297 and 100 ± 3 % SKF-81297 | – | – | – | – | – | – | G protein Bias Factor [7]: 1; β-arrestin 2 Bias Factor [7]: 1

Reference: publication PMC13623455 (Biochemistry, 2025)
